Test results reported in US6358885B1, “Substituted phenylheterocyclic herbicides” (Mississippi State University, priority 1992, dated 2002).

Key:
Experiment in all cases: Test B preemergence/postemergence greenhouse plant response rating 0 to 10
wheat = assay type: in vivo, Triticum aestivum; conditions: for Plant response rating, Wheat: 0 to 10 scale
How it was run: (§1)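 Test chemicals were sprayed onto freshly planted seed and, concurrently, onto young plants between the one and four leaf stage. After a twelve- to sixteen-day greenhouse period, each species was visually compared with untreated controls.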

chickweed = assay type: in vivo, Stellaria media; conditions: for Plant response rating, Chickweed: 0 to 10 scale
How it was run: as §1

cocklebur = assay type: in vivo, Xanthium pensylvanicum; conditions: for Plant response rating, Cocklebur: 0 to 10 scale
How it was run: as §1

purple nutsedge = assay type: in vivo, Cyperus rotundus; conditions: for Plant response rating, Nutsedge: 0 to 10 scale
How it was run: as §1

wild buckwheat = assay type: in vivo, Polygonum convolvulus; conditions: for Plant response rating, Wild buckwheat: 0 to 10 scale
How it was run: as §1

sorghum = assay type: in vivo, Sorghum bicolor; conditions: for Plant response rating, Sorghum: 0 to 10 scale
How it was run: as §1

cotton = assay type: in vivo, Gossypium hirsutum; conditions: for Plant response rating, Cotton: 0 to 10 scale
How it was run: as §1

sugar beet = assay type: in vivo, Beta vulgaris; conditions: for Plant response rating, Sugar beet: 0 to 10 scale
How it was run: as §1

soybean = assay type: in vivo, Glycine max; conditions: for Plant response rating, Soybean: 0 to 10 scale
How it was run: as §1

morningglory = assay type: in vivo, Ipomoea hederacea; conditions: for Plant response rating, Morningglory: 0 to 10 scale
How it was run: as §1

cheatgrass = assay type: in vivo, Bromus secalinus; conditions: for Plant response rating, Cheatgrass: 0 to 10 scale
How it was run: as §1

velvetleaf = assay type: in vivo, Abutilon theophrasti; conditions: for Plant response rating, Velvetleaf: 0 to 10 scale
How it was run: as §1

giant foxtail = assay type: in vivo, Setaria faberii; conditions: for Plant response rating, Giant foxtail: 0 to 10 scale
How it was run: as §1

barnyardgrass = assay type: in vivo, Echinochloa crus-galli; conditions: for Plant response rating, Barnyardgrass: 0 to 10 scale
How it was run: as §1

blackgrass = assay type: in vivo, Alopecurus myosuroides; conditions: for Plant response rating, Blackgrass: 0 to 10 scale
How it was run: as §1

bedstraw = assay type: in vivo, Galium aparine; conditions: for Plant response rating, Bedstraw: 0 to 10 scale
How it was run: as §1

wild oat = assay type: in vivo, Avena fatua; conditions: for Plant response rating, Wild oat: 0 to 10 scale
How it was run: as §1

corn = assay type: in vivo, Zea mays; conditions: for Plant response rating, Corn: 0 to 10 scale
How it was run: as §1

lambsquarters = assay type: in vivo, Chenopodium album; conditions: for Plant response rating, Lambsquarter: 0 to 10 scale
How it was run: as §1

barley = assay type: in vivo, Hordeum vulgare; conditions: for Plant response rating, Barley: 0 to 10 scale
How it was run: as §1

rice = assay type: in vivo, Oryza sativa; conditions: for Plant response rating, Rice: 0 to 10 scale
How it was run: as §1

crabgrass = assay type: in vivo, Digitaria spp.; conditions: for Plant response rating, Crabgrass: 0 to 10 scale
How it was run: as §1

rape = assay type: in vivo, Brassica napus; conditions: for Plant response rating, Rape: 0 to 10 scale
How it was run: as §1

Structure (SMILES): COCCOc1cc(-c2nn3c(c2Cl)CCCC3)c(Cl)cc1Cl [Compound 72]
- Plant response rating, Wheat (wheat; POSTEMERGENCE, Rate 50 g/ha): 5
- Plant response rating, Wheat (wheat; PREEMERGENCE, Rate 50 g/ha): 0
- Plant response rating (0 to 10 scale), Wheat (wheat; PREEMERGENCE, Rate 200 g/ha): 3
- Plant response rating, Wheat (wheat; Rate 200 g/ha, POSTEMERGENCE): 5
- Plant response rating, Chickweed (chickweed; POSTEMERGENCE, Rate 50 g/ha): 2
- Plant response rating, Chickweed (chickweed; PREEMERGENCE, Rate 50 g/ha): 0
- Plant response rating (0 to 10 scale), Chickweed (chickweed; PREEMERGENCE, Rate 200 g/ha): 9
- Plant response rating, Chickweed (chickweed; Rate 200 g/ha, POSTEMERGENCE): 3
- Plant response rating, Cocklebur (cocklebur; POSTEMERGENCE, Rate 50 g/ha): 8
- Plant response rating, Cocklebur (cocklebur; PREEMERGENCE, Rate 50 g/ha): 0
- Plant response rating (0 to 10 scale), Cocklebur (cocklebur; PREEMERGENCE, Rate 200 g/ha): 0
- Plant response rating, Cocklebur (cocklebur; Rate 200 g/ha, POSTEMERGENCE): 10
- Plant response rating, Nutsedge (purple nutsedge; POSTEMERGENCE, Rate 50 g/ha): 2
- Plant response rating, Nutsedge (purple nutsedge; PREEMERGENCE, Rate 50 g/ha): 0
- Plant response rating (0 to 10 scale), Nutsedge (purple nutsedge; PREEMERGENCE, Rate 200 g/ha): 4
- Plant response rating, Nutsedge (purple nutsedge; Rate 200 g/ha, POSTEMERGENCE): 2
- Plant response rating, Wild buckwheat (wild buckwheat; POSTEMERGENCE, Rate 50 g/ha): 10
- Plant response rating, Wild buckwheat (wild buckwheat; PREEMERGENCE, Rate 50 g/ha): 0
- Plant response rating (0 to 10 scale), Wild buckwheat (wild buckwheat; PREEMERGENCE, Rate 200 g/ha): 2
- Plant response rating, Wild buckwheat (wild buckwheat; Rate 200 g/ha, POSTEMERGENCE): 10
- Plant response rating, Sorghum (sorghum; POSTEMERGENCE, Rate 50 g/ha): 5
- Plant response rating, Sorghum (sorghum; PREEMERGENCE, Rate 50 g/ha): 0
- Plant response rating (0 to 10 scale), Sorghum (sorghum; PREEMERGENCE, Rate 200 g/ha): 0
- Plant response rating, Sorghum (sorghum; Rate 200 g/ha, POSTEMERGENCE): 6
- Plant response rating, Cotton (cotton; POSTEMERGENCE, Rate 50 g/ha): 10
- Plant response rating, Cotton (cotton; PREEMERGENCE, Rate 50 g/ha): 0
- Plant response rating (0 to 10 scale), Cotton (cotton; PREEMERGENCE, Rate 200 g/ha): 0
- Plant response rating, Cotton (cotton; Rate 200 g/ha, POSTEMERGENCE): 10
- Plant response rating, Sugar beet (sugar beet; POSTEMERGENCE, Rate 50 g/ha): 10
- Plant response rating, Sugar beet (sugar beet; PREEMERGENCE, Rate 50 g/ha): 0
- Plant response rating (0 to 10 scale), Sugar beet (sugar beet; PREEMERGENCE, Rate 200 g/ha): 9
- Plant response rating, Sugar beet (sugar beet; Rate 200 g/ha, POSTEMERGENCE): 10
- Plant response rating, Soybean (soybean; POSTEMERGENCE, Rate 50 g/ha): 6
- Plant response rating, Soybean (soybean; PREEMERGENCE, Rate 50 g/ha): 0
- Plant response rating (0 to 10 scale), Soybean (soybean; PREEMERGENCE, Rate 200 g/ha): 0
- Plant response rating, Soybean (soybean; Rate 200 g/ha, POSTEMERGENCE): 7
- Plant response rating, Morningglory (morningglory; POSTEMERGENCE, Rate 50 g/ha): 7
- Plant response rating, Morningglory (morningglory; PREEMERGENCE, Rate 50 g/ha): 0
- Plant response rating (0 to 10 scale), Morningglory (morningglory; PREEMERGENCE, Rate 200 g/ha): 0
- Plant response rating, Morningglory (morningglory; Rate 200 g/ha, POSTEMERGENCE): 9
- Plant response rating, Cheatgrass (cheatgrass; POSTEMERGENCE, Rate 50 g/ha): 5
- Plant response rating, Cheatgrass (cheatgrass; PREEMERGENCE, Rate 50 g/ha): 0
- Plant response rating (0 to 10 scale), Cheatgrass (cheatgrass; PREEMERGENCE, Rate 200 g/ha): 3
- Plant response rating, Cheatgrass (cheatgrass; Rate 200 g/ha, POSTEMERGENCE): 6
- Plant response rating, Velvetleaf (velvetleaf; POSTEMERGENCE, Rate 50 g/ha): 9
- Plant response rating, Velvetleaf (velvetleaf; PREEMERGENCE, Rate 50 g/ha): 0
- Plant response rating (0 to 10 scale), Velvetleaf (velvetleaf; PREEMERGENCE, Rate 200 g/ha): 10
- Plant response rating, Velvetleaf (velvetleaf; Rate 200 g/ha, POSTEMERGENCE): 10
- Plant response rating, Giant foxtail (giant foxtail; POSTEMERGENCE, Rate 50 g/ha): 4
- Plant response rating, Giant foxtail (giant foxtail; PREEMERGENCE, Rate 50 g/ha): 3
- Plant response rating (0 to 10 scale), Giant foxtail (giant foxtail; PREEMERGENCE, Rate 200 g/ha): 7
- Plant response rating, Giant foxtail (giant foxtail; Rate 200 g/ha, POSTEMERGENCE): 5
- Plant response rating, Barnyardgrass (barnyardgrass; POSTEMERGENCE, Rate 50 g/ha): 5
- Plant response rating, Barnyardgrass (barnyardgrass; PREEMERGENCE, Rate 50 g/ha): 3
- Plant response rating (0 to 10 scale), Barnyardgrass (barnyardgrass; PREEMERGENCE, Rate 200 g/ha): 3
- Plant response rating, Barnyardgrass (barnyardgrass; Rate 200 g/ha, POSTEMERGENCE): 7
- Plant response rating, Blackgrass (blackgrass; POSTEMERGENCE, Rate 50 g/ha): 5
- Plant response rating, Blackgrass (blackgrass; PREEMERGENCE, Rate 50 g/ha): 0
- Plant response rating (0 to 10 scale), Blackgrass (blackgrass; PREEMERGENCE, Rate 200 g/ha): 4
- Plant response rating, Blackgrass (blackgrass; Rate 200 g/ha, POSTEMERGENCE): 7
- Plant response rating, Bedstraw (bedstraw; POSTEMERGENCE, Rate 50 g/ha): 7
- Plant response rating, Bedstraw (bedstraw; PREEMERGENCE, Rate 50 g/ha): 0
- Plant response rating (0 to 10 scale), Bedstraw (bedstraw; PREEMERGENCE, Rate 200 g/ha): 8
- Plant response rating, Bedstraw (bedstraw; Rate 200 g/ha, POSTEMERGENCE): 9
- Plant response rating, Wild oat (wild oat; POSTEMERGENCE, Rate 50 g/ha): 3
- Plant response rating, Wild oat (wild oat; PREEMERGENCE, Rate 50 g/ha): 0
- Plant response rating (0 to 10 scale), Wild oat (wild oat; PREEMERGENCE, Rate 200 g/ha): 3
- Plant response rating, Wild oat (wild oat; Rate 200 g/ha, POSTEMERGENCE): 4
- Plant response rating, Corn (corn; POSTEMERGENCE, Rate 50 g/ha): 3
- Plant response rating, Corn (corn; PREEMERGENCE, Rate 50 g/ha): 0
- Plant response rating (0 to 10 scale), Corn (corn; PREEMERGENCE, Rate 200 g/ha): 2
- Plant response rating, Corn (corn; Rate 200 g/ha, POSTEMERGENCE): 5
- Plant response rating, Lambsquarter (lambsquarters; POSTEMERGENCE, Rate 50 g/ha): 10
- Plant response rating, Lambsquarter (lambsquarters; PREEMERGENCE, Rate 50 g/ha): 9
- Plant response rating (0 to 10 scale), Lambsquarter (lambsquarters; PREEMERGENCE, Rate 200 g/ha): 10
- Plant response rating, Lambsquarter (lambsquarters; Rate 200 g/ha, POSTEMERGENCE): 10
- Plant response rating, Barley (barley; POSTEMERGENCE, Rate 50 g/ha): 4
- Plant response rating, Barley (barley; PREEMERGENCE, Rate 50 g/ha): 0
- Plant response rating (0 to 10 scale), Barley (barley; PREEMERGENCE, Rate 200 g/ha): 0
- Plant response rating, Barley (barley; Rate 200 g/ha, POSTEMERGENCE): 5
- Plant response rating, Rice (rice; POSTEMERGENCE, Rate 50 g/ha): 4
- Plant response rating, Rice (rice; PREEMERGENCE, Rate 50 g/ha): 0
- Plant response rating (0 to 10 scale), Rice (rice; PREEMERGENCE, Rate 200 g/ha): 0
- Plant response rating, Rice (rice; Rate 200 g/ha, POSTEMERGENCE): 6
- Plant response rating, Crabgrass (crabgrass; POSTEMERGENCE, Rate 50 g/ha): 2
- Plant response rating, Crabgrass (crabgrass; PREEMERGENCE, Rate 50 g/ha): 0
- Plant response rating (0 to 10 scale), Crabgrass (crabgrass; PREEMERGENCE, Rate 200 g/ha): 9
- Plant response rating, Crabgrass (crabgrass; Rate 200 g/ha, POSTEMERGENCE): 2
- Plant response rating, Rape (rape; POSTEMERGENCE, Rate 50 g/ha): 9
- Plant response rating, Rape (rape; PREEMERGENCE, Rate 50 g/ha): 0
- Plant response rating (0 to 10 scale), Rape (rape; PREEMERGENCE, Rate 200 g/ha): 6
- Plant response rating, Rape (rape; Rate 200 g/ha, POSTEMERGENCE): 9
